Measured values taken from ChEMBL document CHEMBL1143225, “Neurosteroid analogues. 14. Alternative ring system scaffolds: GABA modulatory and anesthetic actions of cyclopenta[b]phenanthrenes and cyclopenta[b]anthracenes” (J Med Chem, 2008).
Calls of active or inactive are those of the source. The rule behind the calls is not given here.

Columns and labels:
Oocyte [1] = assay: Activity at rat GABAA alpha-1-beta-2-gamma-2L receptor expressed in Xenopus lavies oocytes assessed as ratio of effect on current at 10 uM drug to absence of compound by electrophysiology method; assay type: cell-based
Oocyte [2] = assay: Activity at rat GABAA alpha-1-beta-2-gamma-2L receptor expressed in Xenopus lavies oocytes assessed as ratio of effect on current at 1 uM drug to absence of compound by electrophysiology method; assay type: cell-based
[3] = (§1) Activity at rat GABAA alpha-1Q241L/Y410F receptor mutant expressed in HEK293 cells assessed as macroscopic current amplitude by electrophysiological method; assay type: cell-based
HEK293 [4] = assay: as §1; assay type: cell-based
Xenopus laevis [5] = assay: Anesthetic effect on Xenopus lavies tadpole assessed as loss of righting reflex; assay type: functional
[6] = Displacement of [35S]TBPS from GABAA receptor in rat brain membrane; assay type: cell membranes
Oocyte [7] = assay: Activity at rat GABAA alpha-1-beta-2-gamma-2L receptor expressed in Xenopus lavies oocytes assessed as ratio of effect on current at 0.1 uM drug to absence of compound by electrophysiology method; assay type: cell-based
Xenopus laevis [8] = assay: Anesthetic effect on Xenopus lavies tadpole assessed as loss of swimming reflex; assay type: functional
Oocyte [9] = assay: Activity at rat GABAA alpha-1-beta-2-gamma-2L receptor expressed in Xenopus laevis oocytes assessed as gating effect at 10 uM by electrophysiology method; assay type: cell-based
[10] = (§2) Activity at rat GABAA alpha-1-beta-2-gamma-2L receptor expressed in HEK293 cells assessed as macroscopic current amplitude by electrophysiological method; assay type: cell-based
HEK293 [11] = assay: as §2; assay type: cell-based
Xenopus laevis [12] = assay: Anesthetic effect on Xenopus lavies tadpole assessed as loss of swimming reflex at 10 uM; assay type: functional, organism-based

Row | SMILES | Ratio (Oocyte [1]) | Ratio (Oocyte [2]) | EC50 [3] | Activity (HEK293 [4]) | ED50 (Xenopus laevis [5]) | IC50 [6] | Ratio (Oocyte [7]) | ED50 (Xenopus laevis [8]) | Ratio (Oocyte [9]) | EC50 [10] | Activity (HEK293 [11]) | Activity (Xenopus laevis [12])
1 | C[C@]12C[C@H]3CC[C@@H]4C[C@@H](O)CC[C@H]4[C@@H]3C[C@@H]1CC[C@@]21CO1 | 29.7 | 15.7 | 130 nM | 220% | 200 nM | 40 nM | 2.16 | 870 nM | 0.15 | 340 nM | 262% | –
2 | C[C@]12CC[C@@H](O)C[C@@H]1CC[C@@H]1[C@@H]2CC[C@@]2(C)[C@H]1CC[C@@]21CO1 | 33.7 | 21.9 | 130 nM | 251% | 1350 nM | 110 nM | 3.11 | 2760 nM | 0.22 | 440 nM | 269% | –
3 | C[C@]12CC[C@@H]3C[C@H](CCO)CC[C@H]3[C@@H]1CCC2=O | 1.05 | 1.03 | – | – | 16400 nM | 4170 nM | 0.99 | – | 0.03 | – | – | inactive
4 | C[C@]12CC[C@@H]3C[C@H](CCO)CC[C@H]3[C@@H]1CC[C@@]21CO1 | 20 | 4.11 | – | – | 3170 nM | 1580 nM | 1.1 | 5480 nM | 0.04 | – | – | –
5 | C[C@]12C[C@H]3CC[C@H](CCO)C[C@@H]3C[C@@H]1CCC2=O | 2.42 | 1 | – | – | 4010 nM | 5010 nM | 1 | – | -0.02 | – | – | inactive
6 | C[C@]12C[C@H]3CC[C@@H]4C[C@@H](O)CC[C@H]4[C@@H]3C[C@@H]1CCC2=O | 6.14 | 1.32 | – | – | 3170 nM | 1440 nM | 0.92 | – | 0.05 | – | – | inactive
7 | C[C@]12C[C@H]3C[C@H]4CC[C@@H](O)C[C@@H]4C[C@@H]3C[C@@H]1CCC2=O | 28.4 | 5.03 | – | – | 1860 nM | 250 nM | 1.1 | 5480 nM | 0.28 | – | – | –
8 | C[C@]12CC[C@@H](O)C[C@@H]1CC[C@@H]1[C@@H]2CC[C@]2(C)C(=O)CC[C@@H]12 [ANDROSTERONE] | 5.44 | 1.41 | – | – | 3380 nM | 410 nM | 0.97 | – | 0.02 | – | – | inactive
9 | C[C@]12C[C@H]3C[C@H]4CC[C@@H](O)C[C@@H]4C[C@@H]3C[C@@H]1CC[C@@]21CO1 | 26.3 | 10.8 | 390 nM | 237% | 480 nM | 60 nM | 1.53 | 1730 nM | 0.16 | 410 nM | 294% | –
10 | C[C@]12C[C@H]3CC[C@H](CCO)C[C@@H]3C[C@@H]1CC[C@@]21CO1 | 5.37 | 1.54 | – | – | 3460 nM | 1170 nM | 0.86 | – | 0.03 | – | – | inactive
